The values that follow are results of earlier work, collected in patent US20250366801A1, “ESTIMATION OF CEREBROVASCULAR RESERVE” (MedTrace Pharma A/S, priority 2024, published 2025).

The conditions of this data set: single standard dose of 1000 mg intravenously; patients with atherosclerotic cerebrovascular disease (Vagal 2009).

`CC(=O)Nc1nnc(S(N)(=O)=O)s1` [Acetazolamide, acetazolamide]: the “time of peak cerebral blood flow augmentation after the intravenous bolus injection” value is 10 to 15 min.
